According to publication PMC11339798, “Dual inhibitors of Pseudomonas aeruginosa virulence factors LecA and LasB” (Chemical Science, 2024):

Legend:
[1] = target: T1, MMP-2 (Homo sapiens, UniProt P08253); assay: MMP selectivity assay (SensoLyte 520 Generic MMP Activity Kit); type: biochemical; conditions: read-out: Percent inhibition at 100 µM, MMP-2, 100 µM
T1 construct: purchased AnaSpec (Fremont, CA, USA)
From the text: (§1) Given that the novel inhibitors contain a free thiol as a strong zinc binding group, we analyzed the selectivity of the diastereomeric mixtures 11 and 12 on six human matrix metalloproteases (MMPs) as putative off-targets.[53] […] Furthermore, we tested the impact of 11 and 12 on bacterial viability to ensure that these compounds are antivirulence agents and not antibiotics. […]
(§2) Selectivity and toxicity assays
(§3) Human MMPs -1, -2, -3, -7, -8 and -14 along with the SensoLyte 520 Generic MMP Activity
(§4) Kit*Fluorimetric* were purchased from AnaSpec (Fremont, CA, USA). The inhibition assay

[2] = target: T2, MMP-3 (Homo sapiens, UniProt P08254); assay: as above; type: biochemical; conditions: read-out: Percent inhibition at 100 µM, MMP-3, 100 µM
T2 construct: purchased AnaSpec (Fremont, CA, USA)
T2 sequence (P08254 100-477): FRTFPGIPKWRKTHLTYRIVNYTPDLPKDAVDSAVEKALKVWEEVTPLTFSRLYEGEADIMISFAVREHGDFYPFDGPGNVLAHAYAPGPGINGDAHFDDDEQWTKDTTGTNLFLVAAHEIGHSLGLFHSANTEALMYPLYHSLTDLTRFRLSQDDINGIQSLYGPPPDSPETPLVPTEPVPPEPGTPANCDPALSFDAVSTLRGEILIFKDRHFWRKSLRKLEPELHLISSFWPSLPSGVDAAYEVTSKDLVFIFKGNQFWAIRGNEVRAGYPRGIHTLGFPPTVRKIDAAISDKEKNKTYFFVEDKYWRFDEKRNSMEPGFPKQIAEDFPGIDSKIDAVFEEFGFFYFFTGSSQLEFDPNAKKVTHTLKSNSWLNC
From the text: as §1, §2, §3, §4

[3] = target: T3, MMP-8 (Homo sapiens, UniProt P22894); assay: as above; type: biochemical; conditions: read-out: Percent inhibition at 100 µM, MMP-8, 100 µM
T3 construct: purchased AnaSpec (Fremont, CA, USA)
T3 sequence (P22894 101-467): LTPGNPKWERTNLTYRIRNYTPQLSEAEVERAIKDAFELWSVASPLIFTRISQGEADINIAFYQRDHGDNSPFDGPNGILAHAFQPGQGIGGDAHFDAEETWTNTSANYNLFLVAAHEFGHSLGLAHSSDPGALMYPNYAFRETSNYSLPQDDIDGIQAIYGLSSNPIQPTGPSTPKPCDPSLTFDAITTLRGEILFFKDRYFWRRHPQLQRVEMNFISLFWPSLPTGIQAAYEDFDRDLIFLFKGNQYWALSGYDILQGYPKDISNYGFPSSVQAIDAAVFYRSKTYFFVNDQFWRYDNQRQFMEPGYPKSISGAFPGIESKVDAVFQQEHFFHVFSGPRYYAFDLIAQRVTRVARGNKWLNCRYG
From the text: as §1, §2, §3, §4

[4] = target: T4, MMP-7 (Homo sapiens, UniProt P09237); assay: as above; type: biochemical; conditions: read-out: Percent inhibition at 100 µM, MMP-7, 100 µM
T4 construct: purchased AnaSpec (Fremont, CA, USA)
T4 sequence (P09237 95-267): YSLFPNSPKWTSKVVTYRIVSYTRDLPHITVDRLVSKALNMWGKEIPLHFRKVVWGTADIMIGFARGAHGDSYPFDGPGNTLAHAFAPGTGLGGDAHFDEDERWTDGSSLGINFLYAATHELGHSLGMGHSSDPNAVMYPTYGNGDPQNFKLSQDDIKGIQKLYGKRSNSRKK
From the text: as §1, §2, §3, §4

[5] = target: T5, MMP-1 (Homo sapiens, UniProt P03956); assay: as above; type: biochemical; conditions: read-out: Percent inhibition at 100 µM, MMP-1, 100 µM
T5 construct: purchased AnaSpec (Fremont, CA, USA)
T5 sequence (P03956 100-469): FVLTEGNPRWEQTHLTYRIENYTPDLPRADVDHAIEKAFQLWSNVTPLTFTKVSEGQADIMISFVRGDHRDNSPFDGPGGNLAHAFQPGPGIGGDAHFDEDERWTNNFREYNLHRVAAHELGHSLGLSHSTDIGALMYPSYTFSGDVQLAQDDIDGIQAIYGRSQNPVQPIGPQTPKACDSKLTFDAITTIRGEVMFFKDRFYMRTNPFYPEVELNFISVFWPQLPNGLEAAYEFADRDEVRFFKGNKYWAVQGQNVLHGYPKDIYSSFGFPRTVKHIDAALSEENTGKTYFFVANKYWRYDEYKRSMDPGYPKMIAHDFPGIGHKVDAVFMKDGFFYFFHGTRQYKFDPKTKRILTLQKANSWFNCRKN
From the text: as §1, §2, §3, §4

[6] = target: T6, MMP-14 (Homo sapiens, UniProt P50281); assay: as above; type: biochemical; conditions: read-out: Percent inhibition at 100 µM, MMP-14, 100 µM
T6 construct: purchased AnaSpec (Fremont, CA, USA)
From the text: as §1, §2, §3, §4

[7] = system: Pseudomonas aeruginosa PA14; assay: Antibacterial activity (MIC, ESCMID guidelines); type: cell-based; conditions: for MIC: Pseudomonas aeruginosa, PA14; for antimicrobial activity (bacterial viability): up to 100 μM
Procedure: as §1
(§5) Selectivity and toxicity assays […]
Antimicrobial activity against P. aeruginosa PA14 was tested using ESCMID guidelines and […]

[8] = system: HepG2; assay: Cytotoxicity MTT assay; type: cell-based, human; conditions: HepG2, at 100 μM
Procedure: as §5
(§6) Cytotoxicity on human liver (HepG2), kidney (HEK293) and lung (A549) cells were performed
(§7) using MTT assay and measuring the optical density (OD) photometrically at 570 nm in a […]

[9] = system: HEK293; assay: Cytotoxicity MTT assay; type: cell-based, human; conditions: HEK293, at 100 μM
Procedure: as §5, §6, §7

[10] = Cytotoxicity MTT assay; type: cell-based, human; conditions: human
Procedure: as §5, §6, §7

[11] = target: T7, LasB (Pseudomonas aeruginosa, UniProt Q02RJ6); assay: FRET-based in vitro LasB inhibition (proteolysis) assay; type: biochemical, P. aeruginosa PA14
T7 construct: P. aeruginosa PA14 culture supernatant; made in house; host or cells: native secreted enzyme purified from P. aeruginosa PA14 culture supernatant (not recombinant)
T7 sequence (Q02RJ6 198-498): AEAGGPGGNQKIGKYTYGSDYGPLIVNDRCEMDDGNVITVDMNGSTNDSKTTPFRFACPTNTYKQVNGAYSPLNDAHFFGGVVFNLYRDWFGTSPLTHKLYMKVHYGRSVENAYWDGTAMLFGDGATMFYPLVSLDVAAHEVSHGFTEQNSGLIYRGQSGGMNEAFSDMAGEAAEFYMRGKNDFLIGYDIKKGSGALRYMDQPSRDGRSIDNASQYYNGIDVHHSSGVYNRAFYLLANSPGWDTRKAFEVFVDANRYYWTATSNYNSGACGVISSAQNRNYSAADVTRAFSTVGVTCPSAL
Procedure: The LasB activity of the thiol derivatives 11, 12, 17, 18, 24 and 25 was tested using a functional FRET-based in vitro proteolysis assay (Fig. 4A). […]
(§8) Expression and purification of LasB and LecA
LecA was expressed recombinantly using E. coli pET25-pail, whereas LasB was isolated from P. aeruginosa PA14 culture supernatant as described previously. 1,2 […]
In vitro inhibition assay for LasB
The in vitro inhibition assay was performed as described previously,2 using purified LasB (final concentration 0.3 nM), the fluorogenic substrate 2-aminobenzoyl-Ala-Gly-Leu-Ala-4-nitrobenzylamide (purchased from Peptides International (Louisville, KY, USA) or Vivitide, LLC (Gardner, MA, USA), final concentration 150 µM)) in assay buffer (50 mM Tris, pH 7.2, 2.5 mM CaCl2, 0.075% Pluronic F-127, 5% DMSO). Fluorescence was measured using a CLARIOstar plate reader (BMG Labtech, Ortenberg, Germany). IC50 values were calculated using GraphPad Prism 8 (GraphPad Software, San Diego, CA, USA) from at least three independent experiments performed in duplicate.

[12] = target: T8, LecA (Pseudomonas aeruginosa, UniProt Q05097); assay: Competitive binding assay for LecA based on fluorescence polarization; set-up: species or system P. aeruginosa
T8 construct: made in house; host or cells: E. coli (plasmid pET25-pail)
T8 sequence (Q05097 whole entry): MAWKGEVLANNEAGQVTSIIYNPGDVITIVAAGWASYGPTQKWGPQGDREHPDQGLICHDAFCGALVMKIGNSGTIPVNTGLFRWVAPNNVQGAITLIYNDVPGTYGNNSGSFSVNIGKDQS
Procedure: The four thiols 17, 18, 24 and 25 as well as three disulfides 26a, 26b and 27 were then evaluated for their activity against LecA using a competitive binding assay based on fluorescence polarization (Fig. 4B). […]
as §8
LecA was expressed recombinantly using E. coli pET25-pail, whereas LasB was isolated from P. aeruginosa PA14 culture supernatant as described previously. 1,2
LecA labeling with fluorescein was performed in analogy to Sommer et al. 3 and Beshr et al.4 To this end fluorescein isothiocyanate (FITC) was freshly dissolved in carbonate-bicarbonate buffer with pH of 9.3 at a concentration of 3 mg mL-1. Subsequently, 66 µL of this FITC solution was combined with 1.4 mL of LecA at a concentration of 60 µM in carbonate-bicarbonate buffer, pH 9.3. The resulting mixture was then incubated at 25 °C with shaking at 500 rpm for 1 hour. Then, extensive washing with PBS/Ca2+ in a 5 kDa molecular weight cutoff centrifugal concentrator was performed to remove excess dye and buffer the labelled protein. […]
Competitive binding assay for LecA
The procedure for the fluorescence polarization-based competitive binding assay for LecA was performed as reported by Joachim et al. with modifications. 1 The assay was performed in TBS/Ca2+ buffer (20 mM Tris, 137 mM NaCl, 2.6 mM KCl at pH 7.4 supplemented with 1 mM CaCl 2 and contained 5% DMSO). The final protein concentration in the assay was 5 µM for LecA. Fluorescence intensities were recorded on a PheraStar FS plate reader (BMG Labtech GmbH, Germany) and polarization was calculated using MARS Data Analysis (BMG Labtech).
IC50 values were obtained from a four-parameter curve-fitting procedure. Averages and standard deviations were calculated from at least three independent experiments of technical

[13] = system: A549; assay: Cytotoxicity MTT assay; type: cell-based, human; conditions: A549, at 100 μM
Procedure: as §5
(§9) Cytotoxicity on human liver (HepG2), kidney (HEK293) and lung (A549) cells were performed using MTT assay and measuring the optical density (OD) photometrically at 570 nm in a FLUOstar Omega plate reader (BMG labtech, Ortenberg, Germany) as described previously. 6 […]
(§10) The A549 cell line, derived from human lung adenocarcinoma, was grown in Dulbecco's Modified Eagle Medium (DMEM) supplemented with 10% Fetal Bovine Serum (FBS) and 1% penicillin-streptomycin. […]

[14] = Cytotoxicity MTT assay; type: cell-based, human; conditions: human, A549 cells (lung)
Procedure: as §5, §9, §10

T1 sequence (P08253 110-660): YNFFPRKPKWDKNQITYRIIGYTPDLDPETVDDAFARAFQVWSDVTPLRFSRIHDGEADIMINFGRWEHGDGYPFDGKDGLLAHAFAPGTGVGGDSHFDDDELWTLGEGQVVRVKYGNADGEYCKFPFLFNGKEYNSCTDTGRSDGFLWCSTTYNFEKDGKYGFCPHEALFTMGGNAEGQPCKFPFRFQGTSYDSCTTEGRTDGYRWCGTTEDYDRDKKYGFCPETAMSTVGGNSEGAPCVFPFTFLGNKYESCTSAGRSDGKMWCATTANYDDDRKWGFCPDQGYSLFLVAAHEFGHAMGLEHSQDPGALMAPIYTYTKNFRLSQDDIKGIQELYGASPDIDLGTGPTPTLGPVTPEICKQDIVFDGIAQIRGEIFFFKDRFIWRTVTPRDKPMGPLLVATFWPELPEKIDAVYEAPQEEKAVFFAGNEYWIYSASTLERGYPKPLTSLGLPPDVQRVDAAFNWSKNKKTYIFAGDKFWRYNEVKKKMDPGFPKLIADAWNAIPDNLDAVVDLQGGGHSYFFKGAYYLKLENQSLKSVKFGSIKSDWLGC

SMILES | inhibition at 100 µM [1] [%] | inhibition at 100 µM [2] [%] | inhibition at 100 µM [3] [%] | inhibition at 100 µM [4] [%] | inhibition at 100 µM [5] [%] | inhibition at 100 µM [6] [%] | MIC [7] [µM] | antimicrobial activity (bacterial viability) [7] | cytotoxicity [8] | cytotoxicity [9] | IC50 ([10]; HEK293 cells (kidney)) [µM] | IC50 ([10]; HepG2 cells (liver)) [µM] | IC50 [11] [µM] | IC50 [12] [µM] | cytotoxicity [13] | IC50 [14] [µM]
O=C(Nc1ccc(S[C@@H]2O[C@H](CO)[C@H](O)[C@H](O)[C@H]2O)cc1)C(S)Cc1ccccc1 (some centres unmarked) [Compound 11] | < 10 | < 10 | < 10 | < 10 | 10 ± 5 | < 10 | > 100 | No antimicrobial activity was detected | no detectable cytotoxicity | no detectable cytotoxicity | > 100 | > 100 | 0.3 | 18.1 | no detectable cytotoxicity | > 100
CC(C)CC(S)C(=O)Nc1ccc(S[C@@H]2O[C@H](CO)[C@H](O)[C@H](O)[C@H]2O)cc1 (some centres unmarked) [Compound 12] | 19 ± 3 | < 10 | < 10 | < 10 | < 10 | 19 ± 5 | > 100 | No antimicrobial activity was detected | no detectable cytotoxicity | no detectable cytotoxicity | > 100 | > 100 | 0.8 | 19.8 | no detectable cytotoxicity | > 100
